Results taken from BindingDB's records for PubMed 3016248 (The Johns Hopkins University, 1986).
Several values for one entry are separate records, joined by “and”; a condition that tells them apart may be missing. Identical values can stand only once.

Biological target: Glutamate receptor ionotropic, NMDA 1 (Rattus norvegicus, UniProt P35439)

CC1(C2(C)COC(c3ccccc3)(c3ccccc3)O2)CCCCN1 (stereo unspecified) [CAS_4792-18-1]
Ki: 2220 nM and 2340 nM and > 10000 nM and 3790 nM
